Measurements reported in patent US7446122B2, “Substituted indole derivatives” (Cephalon, Inc., priority 2003, dated 2008).

How the values were obtained:
[1] = system: prostate cancer cell line (LNCaP); experiment: Cell cytotoxicity, MTT assay, LNCaP; type: cell-based; settings: Homo sapiens, 72 h, three days incubation
Procedure: (§1) Normal prostate cells (PREC, Cambrex East Rutherford N.J.), prostate cancer cell line (LNCaP, ATCC), PBL (peripheral blood leukocytes-buffy coat San Diego Blood Bank), and primary CLL cells were incubated for one to two days in RPMI-1640 and 10% FBS (fetal bovine serum). They were plated in 96-well plates at 100,000 cells/well. Titrated concentrations of the compound to be tested were added to the culture medium. The cells were incubated three days at 37° C., 5% CO2. Viability of the cells was assayed by standard MTT assay. Each drug concentration was done in duplicate. MTT assay: 10 μl of 12 mM 3,[4,5-dimethylthiazol-2-yl]-2,5-diphenyltetrazolium bromide (MTT) (SIGMA) was added to each well. The cells were incubated at 37° C., 5% CO2 for 4 hours. 100 μl of 20% SDS, 0.015M HCl was added to each well and the cells were incubated overnight. The plates were read at absorbance 595 nm.

[2] = system: Daudi human Burkitt Lymphoma derived tumors; experiment: Daudi lymphoma murine xenograft model, efficacy; type: in vivo, male SCID mice; settings: for mean tumor volume at termination of the study: daily Monday to Friday for two weeks, control 1583 mm^3
Procedure: Male SCID mice, 6-8 weeks of age, obtained from Simonsen Laboratories, Inc. (Gilroy, Calif.) were housed in groups of five.
The Daudi human Burkitt Lymphoma cells were obtained from American Type Culture Collection and were inoculated subcutaneously (1.0×10^7 cells/mouse) on the flanks of SCID mice. After the tumors reached approximately 100 mm^3 treatment was initiated.
Body weights and tumor volume of all mice were measured and recorded twice weekly. Tumors were measured in three dimensions and volume calculated using the formula: […]. Time for the tumors (days) to grow to 4× and 8× the initial volume at dosing were assessed. Study compounds were administered at 125 or 250 mg/kg/day (M-F) via oral gavage until the end of the study.
The efficacy of chlorambucil (2 and 3 mg/kg/d), (R-etodoalc) (400 mg/kg/d) and compound 47 (250 mg/kg/d), compound 26 (250 mg/kg/d), and compound 1 (125 mg/kg/d) against Daudi derived tumors in male SCID mice were studied. R-etodolac and compounds 1, 26 and 47 were prepared in sesame oil. Both chlorambucil (ip, 0.1 ml) and compounds of the invention (per os [p.o.], 0.31 ml) were dosed daily (Monday to Friday) for two weeks. SDX-101 (0.31 ml) was dosed p.o. daily until the end of the study. […] However, all treated mice recovered after Day 2 and maintained their weights. There was no body weight loss observed in other treatment groups. At termination of the study, the control group mean tumor volume was 1583 mm^3. The mean tumor volume of chlorambucil treated groups were 864 and 766 mm^3 with 2 and 3 mg/kg/d chlorambucil treatment, respectively. The mean tumor volume of R-etodolac and compounds 1, […] and 47 were 802, 996, 1011, and 1157 mm^3 with compounds 47, 36, 1 and R-etodolac treatment, respectively. […] At termination of the study, tumor samples along with liver, kidney, and spleen samples from each group were collected and fixed in 10% buffered formalin for histopathology.

primary CLL cells = experiment: Cell cytotoxicity, MTT assay, primary CLL cells; type: cell-based; settings: 72 h, three days incubation
Procedure: as §1

[3] = target: T1, Cyclooxygenase-2 (human recombinant, expressed in Sf9 cell) (Homo sapiens, UniProt P35354); experiment: Cox-2 assay: human recombinant cyclooxygenase-2, PGE2 by EIA; type: biochemical; settings: human recombinant enzyme; compounds are screened at 10 μM
T1 construct: purchased Cayman 60122; host or cells: Sf9 cell
T1 sequence (P35354 18-604): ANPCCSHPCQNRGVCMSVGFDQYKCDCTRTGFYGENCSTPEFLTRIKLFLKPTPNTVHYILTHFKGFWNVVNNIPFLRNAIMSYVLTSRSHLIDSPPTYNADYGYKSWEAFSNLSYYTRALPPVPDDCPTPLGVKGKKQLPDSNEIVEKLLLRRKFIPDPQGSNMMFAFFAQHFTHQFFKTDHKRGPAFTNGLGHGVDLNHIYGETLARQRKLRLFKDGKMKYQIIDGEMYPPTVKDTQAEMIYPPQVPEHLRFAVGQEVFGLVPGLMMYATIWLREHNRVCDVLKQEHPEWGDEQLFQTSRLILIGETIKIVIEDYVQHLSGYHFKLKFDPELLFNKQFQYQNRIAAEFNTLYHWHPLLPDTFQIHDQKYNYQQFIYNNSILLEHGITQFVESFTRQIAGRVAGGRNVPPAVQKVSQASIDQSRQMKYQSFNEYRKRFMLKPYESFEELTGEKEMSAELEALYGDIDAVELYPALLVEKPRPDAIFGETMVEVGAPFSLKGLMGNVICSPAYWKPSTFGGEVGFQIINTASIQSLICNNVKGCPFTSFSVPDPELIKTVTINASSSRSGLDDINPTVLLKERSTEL
Procedure: Test compound and/or vehicle is pre-incubated with 0.11 U cyclooxygenase-2, 1 mM reduced glutathione (GSH), 500 μM phenol and 1 μM hematin for 15 minutes at 37° C. The reaction is initiated by addition of 0.3 μM arachidonic acid as substrate in Tris-HCl pH 7.7 and terminated after a 5 minute incubation at 37° C. by addition of 1N HCl. Following centrifugation, substrate conversion to PGE2 is measured by an Amersham EIA kit. Compounds are screened at 10 μM. […] J. Physiol.

COX-1 = target: T2, COX-1 (Homo sapiens, UniProt P23219); experiment: Cox-1 assay: PGE2 formation in human platelets; type: cell-based; settings: compounds are screened at 10 μM
T2 construct: endogenous in cells; host or cells: human platelets
T2 sequence (P23219 24-599): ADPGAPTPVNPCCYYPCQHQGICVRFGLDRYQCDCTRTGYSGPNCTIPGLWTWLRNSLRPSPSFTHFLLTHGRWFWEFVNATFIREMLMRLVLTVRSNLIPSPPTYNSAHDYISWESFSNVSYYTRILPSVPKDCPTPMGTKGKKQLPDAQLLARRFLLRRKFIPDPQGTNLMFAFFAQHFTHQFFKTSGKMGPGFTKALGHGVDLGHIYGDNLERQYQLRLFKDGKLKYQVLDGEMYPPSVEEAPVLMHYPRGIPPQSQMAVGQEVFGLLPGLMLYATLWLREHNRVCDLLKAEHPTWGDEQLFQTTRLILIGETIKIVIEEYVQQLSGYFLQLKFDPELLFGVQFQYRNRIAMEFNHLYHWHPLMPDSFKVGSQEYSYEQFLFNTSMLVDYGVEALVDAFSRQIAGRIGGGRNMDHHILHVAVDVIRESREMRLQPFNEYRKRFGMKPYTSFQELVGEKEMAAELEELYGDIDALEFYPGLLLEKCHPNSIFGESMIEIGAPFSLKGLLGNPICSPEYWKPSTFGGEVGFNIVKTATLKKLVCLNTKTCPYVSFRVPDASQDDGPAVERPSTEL
Procedure: Test compound and/or vehicle is incubated with human platelets (10^8/ml) containing the phospholipase inhibitor MLnFP (100 μM) for 15 minutes at 37° C. Arachidonic acid (100 μM) is then added for a further 15 minute incubation period. The reaction is stopped by addition of 1 N HCl and neutralized with 1N NaOH. PGE2 levels in the supernatant are determined using the Amersham EIA kit. […]

| Compound | IC50 [1] | further results |
| --- | --- | --- |
| CCC1(CCO)OCCc2c1[nH]c1cc(Cl)ccc21 (stereo not drawn) [Compound 44, 2-(7-CHLORO-1-ETHYL-1,3,4,9-TETRAHYDRO-PYRANO[3,4-b]INDOL-1-YL)-ETHANOL] | 60 µM | – |
| O=C(O)CCCc1ccc(N(CCCl)CCCl)cc1 [Chlorambucil, chlorambucil, reference compound] | – | mean tumor volume at termination of the study ([2]; chlorambucil 2 mg/kg/d ip): 864 mm^3; mean tumor volume at termination of the study ([2]; chlorambucil 3 mg/kg/d ip): 766 mm^3; 4× Growth ([2]; time for the tumors to grow to 4× the initial volume at dosing, control 8.9 d): 16 days; 8× Growth ([2]; time for the tumors to grow to 8× the initial volume at dosing, control 14.5 d): 21 days |
| CCC1(CCO)OCCc2c1[nH]c1c(C(C)C)cc(CCC(=O)O)cc21 (stereo not drawn) [Compound 56, 3-(1-ETHYL-1,3,4,9-TETRAHYDRO-1-(2-HYDROXYETHYL)-8-ISOPROPYLPYRANO[3,4-b]INDOL-6-YL)PROPANOIC ACID] | 235 µM | – |
| CCC1(CCO)OCCc2c1[nH]c1ccc(Cl)cc21 (stereo not drawn) [Compound 41, 2-(6-CHLORO-1-ETHYL-1,3,4,9-TETRAHYDRO-PYRANO[3,4-b]INDOL-1-YL)-ETHANOL] | 51 µM | IC50 (primary CLL cells): 110 µM |
| CCC1(CCO)OCCc2c1[nH]c1ccccc21 (stereo not drawn) [Compound 22, (1-ETHYL-1,3,4,9-TETRAHYDRO-PYRANO[3,4-b]INDOL-1-YL)-ETHANOL] | 163 µM | – |
| CCc1cccc2c3c([nH]c12)C(CCO)(c1ccccc1)OCC3 (stereo not drawn) [Compound 32, 2-(8-ETHYL-1-PHENYL-1,3,4,9-TETRAHYDRO-PYRANO[3,4-b]INDOL-1-YL)-ETHANOL] | 15 µM | IC50 (primary CLL cells): 250 µM |
| CCc1cc(-c2ccc(C)cc2)cc2c3c([nH]c12)C(CC)(CCO)OCC3 (stereo not drawn) [Compound 53] | 11 µM | inhibition at 10 µM [3]: 96%; inhibition at 10 µM (COX-1): 90% |
| CCOC(=O)CCc1cc(C(C)C)c2[nH]c3c(c2c1)CCOC3(CC)CCO (stereo not drawn) [Compound 55, ETHYL 3-(1-ETHYL-1,3,4,9-TETRAHYDRO-1-(2-HYDROXYETHYL)-8-ISOPROPYLPYRANO[3,4-B]INDOL-6-YL)PROPANOATE] | 18 µM | – |
| CCc1c(Br)ccc2c3c([nH]c12)C(CC)(CCO)OCC3 (stereo not drawn) [Compound 51, 2-(7-BROMO-1,8-DIETHYL-1,3,4,9-TETRAHYDROPYRANO[3,4-b]INDOL-1-YL)ETHANOL] | 10 µM | – |
| CCC1(CCO)OCCc2c1[nH]c1c(C(C)C)cc(Br)cc21 (stereo not drawn) [Compound 54, 2-(6-BROMO-1-ETHYL-1,3,4,9-TETRAHYDRO-8-ISOPROPYLPYRANO[3,4-b]INDOL-1-yl)ETHANOL] | 7 µM | – |
| CCc1cccc2c3c([nH]c12)C(CC)(CC(=O)N(C)C)OCC3 (stereo not drawn) [Compound 48] | 60 µM | IC50 (primary CLL cells): 240 µM |
| CCc1cc(-c2ccc3c(c2)OCO3)cc2c3c([nH]c12)C(CC)(CCO)OCC3 (stereo not drawn) [Compound 9] | 10 µM | inhibition at 10 µM [3]: 90%; inhibition at 10 µM (COX-1): 88% |
| CCC1(CCO)OCCc2c1[nH]c1ccc(OC)cc21 (stereo not drawn) [Compound 23, 2-(1-ETHYL-6-METHOXY-1,3,4,9-TETRAHYDRO-PYRANO[3,4-b]INDOL-1-YL)-ETHANOL] | 70 µM | – |
| CCC1(CCO)OCCc2c1[nH]c1cc(F)ccc21 (stereo not drawn) [Compound 43, 2-(1-ETHYL-7-FLUORO-1,3,4,9-TETRAHYDRO-PYRANO[3,4-b]INDOL-1-YL)-ETHANOL] | 77 µM | – |
| CCc1cccc2c3c([nH]c12)C(CC)(CC(=O)NC)OCC3 (stereo not drawn) [Compound 33] | 132 µM | IC50 (primary CLL cells): 98 µM |
| CCC1(CCO)OCCc2c1[nH]c1c(C(F)(F)F)cccc21 (stereo not drawn) [Compound 37, 2-(1-ETHYL-8-TRIFLUOROMETHYL-1,3,4,9-TETRAHYDRO-PYRANO[3,4-b]INDOL-1-YL)-ETHANOL] | 60 µM | – |
| CCC1(CCO)OCCc2c1[nH]c1c(F)cccc21 (stereo not drawn) [Compound 26, 2-(1-ETHYL-8-FLUORO-1,3,4,9-TETRAHYDRO-PYRANO[3,4-b]INDOL-1-YL)-ETHANOL] | 95 µM | – |
| CCC1(CCO)OCCc2c1[nH]c1c(C(C)C)cc(CCCO)cc21 (stereo not drawn) [Compound 57, 3-(1-ETHYL-1,3,4,9-TETRAHYDRO-1-(2-HYDROXYETHYL)-8-ISOPROPYLPYRANO[3,4-B]INDOL-6-YL)PROPAN-1-OL] | 110 µM | – |
| CCc1cc(-c2ccc(F)cc2)cc2c3c([nH]c12)C(CC)(CCO)OCC3 (stereo not drawn) [Compound 7] | 12 µM | inhibition at 10 µM [3]: 99%; inhibition at 10 µM (COX-1): 94% |
| CCC1(CCO)OCCc2c1[nH]c1ccc(F)cc21 (stereo not drawn) [Compound 40, 2-(1-ETHYL-6-FLUORO-1,3,4,9-TETRAHYDRO-PYRANO[3,4-b]INDOL-1-YL)-ETHANOL] | 80 µM | IC50 (primary CLL cells): 185 µM |
| CCC1(CCO)OCCc2c1[nH]c1c(Br)cccc21 (stereo not drawn) [Compound 28, 2-(8-BROMO-1-ETHYL-1,3,4,9-TETRAHYDRO-PYRANO[3,4-b]INDOL-1-YL)-ETHANOL] | 25 µM | – |
| CCc1cc(-c2cc3ccccc3s2)cc2c3c([nH]c12)C(CC)(CCO)OCC3 (stereo not drawn) [Compound 52] | 9 µM | inhibition at 10 µM [3]: 97%; inhibition at 10 µM (COX-1): 78% |
| CCCC1(CCO)OCCc2c1[nH]c1c(CC)cccc21 (stereo not drawn) [Compound 30, 2-(8-ETHYL-1-PROPYL-1,3,4,9-TETRAHYDRO-PYRANO[3,4-b]INDOL-1-YL)-ETHANOL] | 100 µM | – |
| CCc1cccc2c3c([nH]c12)C1(CCC(CO)CC1)OCC3 (stereo not drawn) [Compound 34, [8′-ETHYL-4′,9′-DIHYDRO-3′H-SPIRO(CYCLOHEXANE-1,1′-PYRANO[3,4-b]INDOL)-4-YL]-METHANOL] | 20 µM | – |
| CCc1cccc2c3c([nH]c12)C(CCO)(C(C)C)OCC3 (stereo not drawn) [Compound 31, 2-(8-ETHYL-1-ISOPROPYL-1,3,4,9-TETRAHYDRO-PYRANO[3,4-b]INDOL-1-YL)-ETHANOL] | 37 µM | IC50 (primary CLL cells): 244 µM |
